Source: US7449476B2, “Tetrahydrocarboline antiviral agents” (priority 2004, dated 2008)

System: HIV-1
Test: Single-round infectious HIV-1 luciferase reporter virus infection of HeLa CD4 cells
Format: cell-based
Conditions: Human immunodeficiency virus 1, HeLa, 72 h
Experimental: Cells: (virus production) human embryonic kidney cell line, 293, was propagated in Dulbecco's Modified Eagle Medium (Invitrogen, Carlsbad, Calif.) containing 10% fetal Bovine serum (FBS, Sigma, St. Louis, Mo.); (virus infection) human epithelial cell line, HeLa, expressing the HIV-1 receptor CD4 was propagated in Dulbecco's Modified Eagle Medium (Invitrogen, Carlsbad, Calif.) containing 10% fetal Bovine serum (FBS, Sigma, St. Louis, Mo.) and supplemented with 0.2 mg/mL Geneticin (Invitrogen, Carlsbad, Calif.).
Virus: single-round infectious reporter virus was produced by co-transfecting human embryonic kidney 293 cells with an HIV-1 envelope DNA expression vector and a proviral cDNA containing an envelope deletion mutation and the luciferase reporter gene inserted in place of HIV-1 nef sequences. Transfections were performed using lipofectAMINE PLUS reagent as described by the manufacturer (Invitrogen, Carlsbad, Calif.).
Experiment: HeLa CD4 cells were plated in 96 well plates at a cell density of 1×10^4 cells per well in 100 μl Dulbecco's Modified Eagle Medium containing 10% fetal Bovine serum and incubated overnight. Compound was added in a 2 μl dimethylsulfoxide solution, so that the final assay concentration would be ≦10 μM. Single-round infectious reporter virus (100 μL) in Dulbecco's Modified Eagle Medium was then added to the plated cells and compound at an approximate multiplicity of infection (MOI) of 0.01, resulting in a final volume of 200 μl per well. Virally-infected cells were incubated at 37 degrees Celsius, in a CO2 incubator, and harvested 72 h after infection. Viral infection was monitored by measuring luciferase expression from viral DNA in the infected cells using a luciferase reporter gene assay kit, as described by the manufacturer (Roche Molecular Biochemicals, Indianapolis, Ind.). Infected cell supernatants were removed and 50 μl of lysis buffer was added per well. After 15 minutes, 50 μl of freshly-reconstituted luciferase assay reagent was added per well. Luciferase activity was then quantified by measuring luminescence using a Wallac microbeta luminescence reader.
The percent inhibition for each compound was calculated by quantifying the level of luciferase expression in cells infected in the presence of each compound as a percentage of that observed for cells infected in the absence of compound and subtracting such a determined value from 100. The effective concentration for fifty percent inhibition (EC50) was calculated with Microsoft Excel Xlfit curve fitting software. For each compound, curves were generated from percent inhibition calculated at 10 different concentrations by using a four paramenter logistic model (model 205).

SMILES	EC50 [nM]
COc1cnc(-n2cnc(C)n2)c2[nH]cc(C(=O)C(=O)N3CCc4c(c5ccccc5n4-c4ccccc4)C3)c12 [Example 6, 1-(5-Phenyl-1,3,4,5-tetrahydro-pyrido[4,3-b]indol-2-yl)-2-[4-methoxy-7-(3-methyl-1,2,4-triazol-1-yl)-6-azaindol-3-yl]-ethane-1,2-dione]	< 1000
COc1ncc(OC)c2c(C(=O)C(=O)N3CCc4[nH]c5ccc(F)cc5c4C3)c[nH]c12 [Example 3, 1-(8-Fluoro-1,3,4,5-tetrahydro-pyrido[4,3-b]indol-2-yl)-2-(4,7-dimethoxy-6-azaindol-3-yl)-ethane-1,2-dione]	> 5000
COc1cnc(-n2cnc(C)n2)c2[nH]cc(C(=O)C(=O)N3CCc4c(c5cc(F)ccc5n4-c4ccccc4)C3)c12 [Example 8, 1-(8-Fluoro-5-phenyl-1,3,4,5-tetrahydro-pyrido[4,3-b]indol-2-yl)-2-[4-methoxy-7-(3-methyl-1,2,4-triazol-1-yl)-6-azaindol-3-yl]-ethane-1,2-dione]	< 1000
COc1cnc(-n2ccnn2)c2[nH]cc(C(=O)C(=O)N3CCc4c(c5cc(F)ccc5n4-c4ccccc4)C3)c12 [Example 9, 1-(8-Fluoro-5-phenyl-1,3,4,5-tetrahydro-pyrido[4,3-b]indol-2-yl)-2-[4-methoxy-7-(1,2,3-triazol-1-yl)-6-azaindol-3-yl]-ethane-1,2-dione]	< 1000
COc1ncc(OC)c2c(C(=O)C(=O)N3CCc4[nH]c5ccc(C(F)(F)F)cc5c4C3)c[nH]c12 [Example 5, 1-(8-Trifluoromethyl-1,3,4,5-tetrahydro-pyrido[4,3-b]indol-2-yl)-2-(4,7-dimethoxy-6-azaindol-3-yl)-ethane-1,2-dione]	1000 to 5000
COc1ncc(OC)c2c(C(=O)C(=O)N3CCc4c(c5cc(F)ccc5n4C)C3)c[nH]c12 [Example 4, 1-(8-Fluoro-5-methyl-1,3,4,5-tetrahydro-pyrido[4,3-b]indol-2-yl)-2-(4,7-dimethoxy-6-azaindol-3-yl)-ethane-1,2-dione]	< 1000
COc1ncc(OC)c2c(C(=O)C(=O)N3CCc4c(c5ccccc5n4-c4ccccc4)C3)c[nH]c12 [Example 1, 1-(5-Phenyl-1,3,4,5-tetrahydro-pyrido[4,3-b]indol-2-yl)-2-(4,7-dimethoxy-6-azaindol-3-yl)-ethane-1,2-dione]	< 1000
COc1ncc(OC)c2c(C(=O)C(=O)N3CCc4[nH]c5ccccc5c4C3)c[nH]c12 [Example 2, 1-(1,3,4,5-Tetrahydro-pyrido[4,3-b]indol-2-yl)-2-(4,7-dimethoxy-6-azaindol-3-yl)-ethane-1,2-dione]	> 5000
COc1cnc(-n2ncnc2C)c2[nH]cc(C(=O)C(=O)N3CCc4c(c5ccccc5n4-c4ccccc4)C3)c12 [Example 7, 1-(5-Phenyl-1,3,4,5-tetrahydro-pyrido[4,3-b]indol-2-yl)-2-[4-methoxy-7-(5-methyl-1,2,4-triazol-1-yl)-6-azaindol-3-yl]-ethane-1,2-dione]	< 1000
